Assays:
Type in all cases: cell-based
naïve CD4+ T cells = assay: Human regulatory T cell differentiation assay; settings: 6 days
Protocol: Peripheral blood mononuclear cells (PBMCs) from whole blood donated by health volunteers were separated by Ficoll-Paque gradient centrifugation and naïve CD4^+ T cells were subsequently isolated using magnet beads (EasySep™ Human Naïve CD4^+ T Cell Isolation Kit, Cambridge, Mass.). For regulatory T cell (Treg) differentiation assay, naïve CD4^+ T cells were cultured (1-10×10^4 cells) in CTS OpTmizer medium for 6 days and stimulated with 5 ng/ml TGF-β, 100 U/ml IL-2, and ImmunoCult™ Human […] T Cell Activator; Stemcell #10990) with/without our Compounds. Cell viability was determined using a viability dye (eBioscience Fixable Viability Dye eFluor 780: ThermoFisher 65-0865-14) at 1:500 dilution. The cells were gated for Treg, defined as Live, CD11c^−, CD14^−, CD19^−, CD8^−, CD4^+, CD3^+, CD25^+, FOXP3^+. Percent (%) Tregs were calculated as percentage of CD4^+, CD25^+, FOXP3^+ cells over total CD4^+ T cells. Statistical analysis was performed with GraphPad Prism Software Using One-Way ANOVA.

Mouse 3T3-L1 cells = assay: Mouse adipocyte lipolysis assay; settings: Mus musculus, 3T3-L1, 24 hours, read-out: Lipolysis Free Fatty Acids % DMSO; for activity at 500 µM: 0.5 mM
Protocol: Once the cells became confluent, they were seeded into a tissue culture treated 96 well plate. […] After 14 days of differentiation, cells were treated with compounds of interest. After 24 hours post-treatment, the cell viability was assessed using CellTiter-Glo Luminescent Cell Viability Assay from Promega, and lipolysis was determined using Lipolysis Assay Kit from ZenBio.

Mouse myocyte = Mouse myocyte lipolysis assay; settings: Mus musculus, read-out: Free glycerol % DMSO; for activity at 500 µM: 0.5 mM
Protocol: Cells were obtained from ATCC and cultured in Dulbecco's Modified Eagle's medium (DMEM) containing 20% fetal bovine serum and 1% penicillin/streptomycin at 37° C. in an incubator with 5% CO2. Once the cells became confluent, they were seeded into a tissue culture treated 96 well plate. The next day, the medium containing DMEM with 2% equine serum was used to start differentiation. Once cells were fully differentiated, they were treated with indicated compounds.

[1] = system: Primary human subcutaneous adipocytes; assay: Glucose uptake in human subcutaneous adipocytes, insulin sensitive model
Protocol: Primary human subcutaneous adipocytes (Zen Bio, Research Triangle Park, N.C.) were differentiated for two weeks prior to treatment. Cells were treated with indicated compounds diluted in (dimethyl-sulfoxide) DMSO in serum free medium for 24 hours in triplicate. After 24 hours, media was exchanged for assay buffer and the compounds were added again but in the presence of approximately 1 nM insulin. Glucose uptake was initiated with the addition of a cocktail containing 2-deoxyglucose and ^3H-2-deoxyglucose and allowed to incubate for 2 hours. Cells were washed, lysed and glucose uptake was measured as counts per well. As an assay control, 100 nM of insulin was used during the 2 hours of glucose uptake. […] Statistical changes in glucose uptake were determined by way ANOVA and compared to DMSO.

[2] = system: Primary human subcutaneous adipocytes; assay: Glucose uptake in human subcutaneous adipocytes, insulin resistant model
Protocol: As described above, primary human subcutaneous adipocytes were differentiated for two weeks prior to treatment. To induce an insulin resistant state, cells were treated in serum free Dulbecco's Modified Eagle Medium (high glucose) and […] for 24 hours. Cells were simultaneously treated with compounds diluted in DMSO for 24 hours. As described above, after 24 hours, media was exchanged for assay buffer and the compounds were added again but in the presence of approximately 1 nM insulin. Cells were washed and lysed after 2 hours and glucose uptake was measured. […] Statistical changes in glucose uptake were determined by way ANOVA and compared to DMSO.

[3] = system: Human Peripheral Blood Monocytes (PBMCs); assay: Cytokine release from human PBMCs; settings: 100 μM, LPS, 24 hours
Protocol: Human donor blood (8 mL) was collected in sodium citrate CPT tubes and centrifuged at 1,600×g for 20 minutes at room temperature. […] PBMCs samples were centrifuged at 400×g for 10 minutes at 10° C. […] PBMCs were filtered through a 70 micron mesh to remove any cellular debris. […] PBMCs in a 96-well plate were rested for 30 minutes in a 37° C., 5% CO2 incubator, then subsequently treated with 10 μl of indicated compound. After 2 hours 10 μL of LPS (O111:B4) 1 mg/mL was added to test wells. After 24 hours of incubation at 37° C., 5% CO2, 100 μL of cell supernatant was collected and transferred to a 96-well plate (non-tissue treated, flat bottom). The plate was centrifuged at 350×g for 5 minutes at room temperature, and then the clear supernatant transferred to a new 96-well plate (non-tissue treated, flat bottom). The remaining cells were tested for viability using CellTiter-Glo® Luminescent Cell Viability Assay (Promega). The supernatant was analyzed for TNFα, IL-6 and IL-1β (kit LXSAHM-03; R&D Systems), using Luminex Immunoassay Technology (MAGPIX System). Cytokine levels of LPS treated DMSO control samples were set to 100%, and compound treated samples were expressed relative to this (Table 13).

[4] = Homo sapiens, CD4+ T, 144 h, 0.5 mM, read-out: Treg induction % DMSO

## O=C[C@H](O)[C@@H](O)[C@@H](O)CO [L-arabinose]
naïve CD4+ T cells; 0.5 mM
  Cell viability % DMSO: = (90%≥ ≤110%: =)
naïve CD4+ T cells; 1 mM
  Cell viability % DMSO: = (90%≥ ≤110%: =)
naïve CD4+ T cells; [4]
  activity at 500 µM: 90 to 110%
naïve CD4+ T cells; Homo sapiens, CD4+ T, 144 h, 1 mM, read-out: Treg induction % DMSO
  activity at 1000 µM: 90 to 110%
Mouse 3T3-L1 cells
  activity at 500 µM: 50 to 70%
Mouse 3T3-L1 cells; 1 mM
  activity at 1000 µM: 50 to 70%
Mouse myocyte
  activity at 500 µM: 70 to 90%
Mouse myocyte; 1 mM
  activity at 1000 µM: 70 to 90%

## O=C[C@@H](O)[C@H](O)[C@H](O)CO [arabinose]
[1]; 0.5 mM
  Insulin Sensitive % DMSO (glucose uptake): = (50%> ≤110%: =)
[1]; 1 mM
  Insulin Sensitive % DMSO (glucose uptake): ++ (140%≥ ≤200%: ++)
[2]; 0.5 mM
  Insulin Resistant % DMSO (glucose uptake): = (50%> ≤110%: =)
[2]; 1 mM
  Insulin Resistant % DMSO (glucose uptake): = (50%> ≤110%: =)
[3]
  IL6 % DMSO control: + ((+) 50%≥ <90% DMSO)
  ILβ % DMSO control: = ((=) 90%≥ <110% DMSO)
  TNFα % of DMSO control: + ((+) 50%≥ <90% DMSO)

## C[C@@H](O)CC(=O)O [(R) BHB]
[1]; 2 mM
  Insulin Sensitive % DMSO (glucose uptake): ++ (140%≥ ≤200%: ++)
[1]; 20 mM
  Insulin Sensitive % DMSO (glucose uptake): ++ (140%≥ ≤200%: ++)
[2]; 2 mM
  Insulin Resistant % DMSO (glucose uptake): + (110%> ≤140%: +)
[2]; 20 mM
  Insulin Resistant % DMSO (glucose uptake): = (50%> ≤110%: =)

## C[C@@H](O)CCO [(R)-1,3-Butanediol, (3R)-butane-1,3-diol]
naïve CD4+ T cells; 100 uM
  Cell viability % DMSO: = (90%≥ ≤110%: =)
naïve CD4+ T cells; 0.5 mM
  Cell viability % DMSO: = (90%≥ ≤110%: =)
naïve CD4+ T cells; [4]
  activity at 500 µM: 90 to 110%
[1]; 100 μM
  Insulin Sensitive % DMSO (glucose uptake): = (50%> ≤110%: =)
[1]; 500 μM
  Insulin Sensitive % DMSO (glucose uptake): ++ (140%≥ ≤200%: ++)
[1]; insulin sensitive model, compared to DMSO
  insulin-mediated glucose uptake: significantly enhanced insulin-mediated glucose uptake
[2]; 100 μM
  Insulin Resistant % DMSO (glucose uptake): = (50%> ≤110%: =)
[2]; 500 μM
  Insulin Resistant % DMSO (glucose uptake): = (50%> ≤110%: =)
Mouse 3T3-L1 cells
  activity at 100 µM: 50 to 70%
  activity at 500 µM: 50 to 70%
Mouse myocyte
  activity at 500 µM: 70 to 90%

## CC[C@H]1[C@@H](O)[C@@H]2[C@H](CC[C@]3(C)[C@@H]([C@H](C)CCC(=O)O)CC[C@@H]23)[C@@]2(C)CC[C@@H](O)C[C@@H]12 [Obeticholic acid, obeticholic acid]
naïve CD4+ T cells; 100 uM
  Cell viability % DMSO: = (90%≥ ≤110%: =)
naïve CD4+ T cells; Homo sapiens, CD4+ T, 144 h, 100 uM, read-out: Treg induction % DMSO
  activity at 100 µM: 110 to 130%
Mouse 3T3-L1 cells
  activity at 100 µM: 90 to 100%
Mouse myocyte; 100 μM
  activity at 100 µM: 90 to 100%

Source: patent US10953027B2, “Active agents and methods of their use for the treatment of metabolic disorders and nonalcoholic fatty liver disease” (Flagship Pioneering Innovations V, Inc., priority 2018, dated 2021)
